Source: EP0816329A1, “Benzoic acid derivatives, process for their preparation and their use for the treatment of diseases” (HOECHST AKTIENGESELLSCHAFT, priority 1996, dated 1998)

Test system: Glucose-6-Phosphatase-System
Experiment: Glucose-6-phosphatase enzyme test in liver microsomes (phosphate released from glucose-6-phosphate)
Type: biochemical, Wistar-Ratten
Details: Glucose-6-Phosphat 1 mMol/l, 0,1 mg Mikrosomen-Fraktion, pH 7,0, 20 min, room temperature
Description: Die Wirkung der erfindungsgemäßen Verbindungen auf das Glucose-6-Phosphatase-System wurde in einem Enzymtest in Lebermikrosomen untersucht.
Für die Präparation der die Glucose-6-Phosphatase enthaltenden Mikrosomen-Fraktion wurden frische Leber-Organe von männlichen Wistar-Ratten verwendet und wie in der Literatur beschrieben aufgearbeitet [Canfield, W. K. Und Arion, W.J., J. Biol. Chem. 263, 7458-7460, (1988)]. Diese Mikrosomen-Fraktion kann bei -70°C mindestens 2 Monate lang ohne signifikamten Aktivitätsverlust aufbewahrt werden.
Der Nachweis der Glucose-6-Phosphatase-Aktivität wurde wie in der Literatur angegeben (Arion, W. J. in Methods Enzymol. 174, Academic Press 1989, Seite 58 - 67) durch Bestimmung des aus Glucose-6-Phosphat freigesetzten Phosphats durchgeführt. 0,1 ml Testansatz enthielten Glucose-6-Phosphat (1mMol/l), die Testsubstanz, 0,1 mg Mikrosomen-Fraktion und 100 mMol/l HEPES-Puffer (4-(2-Hydroxyethyl)piperazin-1-ethansulfonsäure), pH 7,0. Die Reaktion wurde durch Zugabe des Enzyms gestartet. Nach Ablauf von 20 Minuten bei Raumtemperatur wurde die Reaktion durch Zugabe von 0,2 ml Phosphat-Reagens gestoppt. Die Probe wurde 30 Minuten lang bei 37 °C inkubiert, und die Absorbtion (A) der blauen Farbe anschließend bei 570 nm gemessen. Die inhibitorische Wirksamkeit der Testsubstanz ergab sich durch Vergleich mit einer Kontroll-Reaktion, die keine Testsubstanz enthielt nach der Formel Prozent Hemmung =(A(Kontrolle) - A(Testsubstanz))/(A(Kontrolle))x 100 [formula]
Die hemmende Wirkung der Testsubstanz (Verbindungen 1 - 43) wurde bei den in der nachfolgenden Tabelle 1 angegebenen Konzentrationen der Testsubstanz ermittelt.

[1] = Inhibitorkonzentration 12,5 µM, 12.5 µM

| SMILES | % Hemmung (Inhibitorkonzentration 100 µM) [%] | % Hemmung [1] [%] |
| --- | --- | --- |
| COc1ccc2cc(-c3ccc(NC(=O)C=Cc4ccccc4)cc3C(=O)O)ccc2c1 [Beispiel 1] | 53 | – |
| COc1ccc2cc(-c3ccc(NC(=O)Cc4ccc(OC)c(OC)c4)cc3C(=O)O)ccc2c1 [Beispiel 2] | 60 | – |
| COc1ccc2cc(-c3ccc(NC(=O)c4cccs4)cc3C(=O)O)ccc2c1 [Beispiel 3] | 93 | – |
| O=C(Nc1ccc(CCCCCl)c(C(=O)O)c1)Nc1ccc(Cl)c(C(F)(F)F)c1 [Beispiel 4] | 66 | – |
| COc1ccc2cc(-c3ccc(NC(=O)C4CC4)cc3C(=O)O)ccc2c1 [Beispiel 5] | 51 | – |
| COc1ccc2cc(-c3ccc(NC(=O)c4ccco4)cc3C(=O)O)ccc2c1 [Beispiel 6] | 61 | – |
| COc1ccc(OC)c(CC(=O)Nc2ccc(-c3ccc4cc(OC)ccc4c3)c(C(=O)O)c2)c1 [Beispiel 7] | 63 | – |
| COc1ccc2cc(-c3ccc(NC(=O)c4cccc(F)c4)cc3C(=O)O)ccc2c1 [Beispiel 8] | 77 | – |
| COc1ccc2cc(-c3ccc(NC(=O)CCC4CCCC4)cc3C(=O)O)ccc2c1 [Beispiel 9] | 64 | – |
| O=C(CCCc1ccc(Cl)cc1)Nc1ccc(-c2ccc(Cl)s2)c(C(=O)O)c1 [Beispiel 10] | 62 | – |
| O=C(C=Cc1ccccc1)Nc1ccc(-c2ccc(Cl)s2)c(C(=O)O)c1 [Beispiel 11] | 57 | – |
| O=C(Nc1ccc(-c2ccc(Cl)s2)c(C(=O)O)c1)c1ccc2ccccc2c1 [Beispiel 12] | 71 | – |
| O=C(Nc1ccc(-c2cccs2)c(C(=O)O)c1)c1ccc2ccccc2c1 [Beispiel 13] | 53 | – |
| O=C(Nc1ccc(-c2ccco2)c(C(=O)O)c1)c1ccc2ccccc2c1 [Beispiel 14] | 57 | – |
| O=C(Nc1ccc(-c2ccco2)c(C(=O)O)c1)c1cnc2ccccc2n1 [Beispiel 15] | 63 | – |
| CC(C)(C)c1ccc(-c2ccc(NC(=O)COc3ccccc3)cc2C(=O)O)cc1 [Beispiel 16] | 50 | – |
| CC(C)(C)c1ccc(-c2ccc(NC(=O)C3CCCC3)cc2C(=O)O)cc1 [Beispiel 17] | 53 | – |
| COc1cccc(C(=O)Nc2ccc(C#Cc3ccccc3)c(C(=O)O)c2)c1 [Beispiel 18] | – | 98 |
| N#Cc1cccc(C(=O)Nc2ccc(C#Cc3ccccc3)c(C(=O)O)c2)c1 [Beispiel 19] | – | 98 |
| O=C(Nc1ccc(C#Cc2ccccc2)c(C(=O)O)c1)c1ccccc1Cl [Beispiel 20] | – | 100 |
| O=C(Nc1ccc(C#Cc2ccccc2)c(C(=O)O)c1)c1ccc(Cl)cc1Cl [Beispiel 21] | – | 84 |
| O=C(Nc1ccc(C#Cc2ccccc2)c(C(=O)O)c1)c1cccc(F)c1 [Beispiel 22] | – | 100 |

| SMILES | % Hemmung (Inhibitorkonzentration 100 µM) [%] | % Hemmung [1] [%] |
| --- | --- | --- |
| O=C(Nc1ccc(C#Cc2ccccc2)c(C(=O)O)c1)c1cccc(C(F)(F)F)c1 [Beispiel 23] | – | 63 |
| O=C(O)c1cc(NC(=O)C2CCCCC2)ccc1C#Cc1ccccc1 [Beispiel 24] | – | 58 |
| O=C(Nc1ccc(C#Cc2ccccc2)c(C(=O)O)c1)c1cccc([N+](=O)[O-])c1 [Beispiel 25] | – | 51 |
| O=C(O)c1cc(NC(=O)c2c(F)c(F)c(F)c(F)c2F)ccc1C#Cc1ccccc1 [Beispiel 26] | – | 54 |
| CC(C)(C)CC(=O)Nc1ccc(C#Cc2ccccc2)c(C(=O)O)c1 [Beispiel 27] | – | 58 |
| CC(C)(O)C(=O)Nc1ccc(C#Cc2ccccc2)c(C(=O)O)c1 [Beispiel 28] | – | 60 |
| Cc1ccc(C#Cc2ccc(NC(=O)c3cnc4ccccc4n3)cc2C(=O)O)cc1 [Beispiel 29] | – | 73 |
| COc1ccc(C(=O)Nc2ccc(C#Cc3ccc(C)cc3)c(C(=O)O)c2)c(OC)c1 [Beispiel 30] | – | 52 |
| COc1cc(OC)cc(C(=O)Nc2ccc(C#Cc3ccc(C)cc3)c(C(=O)O)c2)c1 [Beispiel 31] | – | 64 |
| COc1ccc(C(=O)Nc2ccc(C#Cc3ccc(C)cc3)c(C(=O)O)c2)cc1OC [Beispiel 32] | – | 61 |
| Cc1ccc(C#Cc2ccc(NC(=O)c3cc(C(F)(F)F)cc(C(F)(F)F)c3)cc2C(=O)O)cc1 [Beispiel 33] | – | 77 |
| Cc1ccc(C#Cc2ccc(NC(=O)c3cccc(C(F)(F)F)c3)cc2C(=O)O)cc1 [Beispiel 34] | – | 50 |
| Cc1ccc(C#Cc2ccc(NC(=O)CCC3CCCC3)cc2C(=O)O)cc1 [Beispiel 35] | – | 76 |
| COc1cccc(C(=O)Nc2ccc(C#Cc3ccc(C)cc3)c(C(=O)O)c2)c1 [Beispiel 36] | – | 78 |
| Cc1ccc(C#Cc2ccc(NC(=O)c3cccc(Cl)c3)cc2C(=O)O)cc1 [Beispiel 37] | – | 55 |
| Cc1ccc(C#Cc2ccc(NC(=O)c3cccc([N+](=O)[O-])c3)cc2C(=O)O)cc1 [Beispiel 38] | – | 50 |
| Cc1ccc(C#Cc2ccc(NS(=O)(=O)c3ccc([N+](=O)[O-])cc3)cc2C(=O)O)cc1 [Beispiel 39] | – | 62 |
| Cc1ccc(C#Cc2ccc(NC(=O)C(C)C)cc2C(=O)O)cc1 [Beispiel 40] | – | 94 |
| Cc1ccc(C#Cc2ccc(NC(=O)C(F)(F)C(F)(F)C(F)(F)F)cc2C(=O)O)cc1 [Beispiel 41] | – | 71 |
| Cc1ccc(C#Cc2ccc(NC(=O)c3cccc4ccccc34)cc2C(=O)O)cc1 [Beispiel 42] | – | 60 |
| Cc1ccc(C#Cc2ccc(NC(=O)c3ccccc3O)cc2C(=O)O)cc1 [Beispiel 43] | – | 55 |
